Source: ChEMBL document CHEMBL5143643, “Development of disulfide-functionalized peptides covalently binding G protein-coupled receptors” (Bioorg Med Chem, 2022)
pKi: −log10 of the molar value. *1 amine or outer side, *2 acyl side, *3 side chain or, on linkers, in order; H or OH if unused. Where a SMILES comes first, the peptide text is derived from it. Cysteamine = C(CS[*:2])N[*:1]

How the values were obtained:
[1] = molecular target: Neurotensin receptor type 2 (Homo sapiens, UniProt O95665); assay: Displacement of [3H]NT(8-13) from human NTSR2 expressed in HEK293 cell membranes by radioligand displacement assay; design: species or system Cell membrane
Neurotensin receptor type 2, sequence (O95665 whole entry): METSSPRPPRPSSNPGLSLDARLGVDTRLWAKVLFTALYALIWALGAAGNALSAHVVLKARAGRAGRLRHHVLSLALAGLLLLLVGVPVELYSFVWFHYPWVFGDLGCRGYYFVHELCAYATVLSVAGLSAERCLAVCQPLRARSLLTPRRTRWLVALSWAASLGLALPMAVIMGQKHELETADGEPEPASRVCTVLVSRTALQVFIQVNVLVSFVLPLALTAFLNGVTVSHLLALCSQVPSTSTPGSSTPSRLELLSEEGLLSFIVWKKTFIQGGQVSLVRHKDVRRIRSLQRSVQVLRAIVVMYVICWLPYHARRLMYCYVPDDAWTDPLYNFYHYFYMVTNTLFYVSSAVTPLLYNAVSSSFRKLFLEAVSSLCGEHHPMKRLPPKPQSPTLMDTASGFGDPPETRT

[2] = molecular target: T1, Neurotensin receptor type 1 (Homo sapiens, UniProt P30989); assay: Displacement of [3H]NT(8-13) from human NTSR1 F2.65C mutant expressed in HEK293 cell membranes assessed as amount of blocking at 1 uM incubated for 120 mins by radioligand depletion assay; conditions: Cell membrane
Target sequence in this assay (P30989 whole entry): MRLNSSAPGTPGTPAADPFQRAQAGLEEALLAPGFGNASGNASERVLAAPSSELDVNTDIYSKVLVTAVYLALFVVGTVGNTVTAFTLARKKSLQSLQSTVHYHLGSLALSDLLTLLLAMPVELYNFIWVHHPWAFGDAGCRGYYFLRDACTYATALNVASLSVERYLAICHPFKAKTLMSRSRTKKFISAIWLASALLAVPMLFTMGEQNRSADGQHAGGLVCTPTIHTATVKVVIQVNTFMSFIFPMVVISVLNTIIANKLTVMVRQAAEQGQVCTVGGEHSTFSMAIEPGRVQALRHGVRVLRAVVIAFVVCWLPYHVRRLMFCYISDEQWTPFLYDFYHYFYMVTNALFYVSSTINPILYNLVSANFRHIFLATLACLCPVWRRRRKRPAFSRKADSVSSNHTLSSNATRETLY

[3] = molecular target: T1, Neurotensin receptor type 1; assay: Displacement of [3H]neurotensin from human NTSR1 expressed in CHO cell membranes by radioligand depletion assay; design: species or system Cell membrane
Target sequence in this assay (P30989 whole entry): as above

[4] = molecular target: T1, Neurotensin receptor type 1; assay: Displacement of [3H]NT(8-13) from human NTSR1 F2.65C mutant expressed in HEK293 cell membranes by radioligand displacement assay; design: species or system Cell membrane
Target sequence in this assay (P30989 whole entry, looked up): as the sequence (P30989 whole entry) above

Structure (SMILES)	pKi [1]	Activity [2] [%]	pKi ([3]; cho)	pKi [4]	pKi [3]
CC[C@H](C)[C@H](NC(=O)[C@H](Cc1ccc(O)cc1)NC(=O)[C@@H]1CCCN1C(=O)[C@H](CCCNC(=N)N)NC(=O)[C@@H](N)CCCNC(=N)N)C(=O)N[C@@H](CC(C)C)C(=O)N[C@H](CCSSCCN)C(=O)O	8.28	-2	8.15	7.40	
CC[C@H](C)[C@H](NC(=O)[C@H](Cc1ccc(O)cc1)NC(=O)[C@@H]1CCCN1C(=O)[C@H](CCCNC(=N)N)NC(=O)[C@@H](N)CCCNC(=N)N)C(=O)N[C@@H](CC(C)C)C(=O)N[C@@H](CSSCCN)C(=O)O (H-RRPYILC(Cysteamine)-OH)	8.38	6		7.29	8.62
CC(C)C[C@H](NC(=O)[C@@H](CCSSCCN)NC(=O)[C@H](Cc1ccc(O)cc1)NC(=O)[C@@H]1CCCN1C(=O)[C@H](CCCNC(=N)N)NC(=O)[C@@H](N)CCCNC(=N)N)C(=O)O	7.77	88	8.28	7.82	
CC(C)C[C@H](NC(=O)[C@H](CSSCCN)NC(=O)[C@H](Cc1ccc(O)cc1)NC(=O)[C@@H]1CCCN1C(=O)[C@H](CCCNC(=N)N)NC(=O)[C@@H](N)CCCNC(=N)N)C(=O)O	7.26	61		7.55	7.31
